Results reported in patent publication US10729643B2, “Methods for administration and methods for treating cardiovascular diseases with resiniferatoxin” (priority 2013, dated 2020).
Like-named read-outs stand apart in the source and are kept apart here.

What was measured:
[1] = tested on: infarcted heart / CSAR activation; assay: Cardiac plasma extravasation (Evans Blue area); type: in vivo, rat; settings: i.v.
Text: This example illustrates local anti-inflammatory effects of RTX in the infarcted heart. Myocardial ischemia causes the production and release of several metabolites including bradykinin, prostaglandins and protons that stimulate cardiac sympathetic afferent nerve endings leading to increases in BP, HR and sympathetic nerve activity. As cardiac TRPV1-expressing sympathetic afferents also subserve a “dual sensory-efferent” function and release pro-inflammatory neuropeptides, we hypothesized that plasma extravasation and cardiac neuroinflammation follows myocardial ischemia. […] Inflammation in the infarct area may be due to tissue death whereas in peri-infarct and remote areas may be due to cardiac sympathetic afferent mediated neuroinflammation. This may explain why RTX prevented cardiac inflammation in non-infarct areas to a greater extent than in the infarct area.

[2] = tested on: cardiac sympathetic afferent input; settings: anesthetized CHF rats; acute epicardial application; cited from earlier work
[3] = tested on: cardiac sympathetic afferent input; settings: anesthetized CHF dogs; acute epicardial application; cited from earlier work

Compound | cardiac plasma extravasation after MI (Evans Blue area) ([1]; Spantide II 0.3 mg/kg, 2 min prior to injection of Evans Blue) | plasma extravasation following CSAR activation by epicardial capsaicin or bradykinin ([1]; acute pretreatment with Spantide II, 0.3 mg/kg) | baseline MAP, HR and RSNA [2] | baseline MAP, HR and RSNA [3]
Spantide II | attenuated | largely be abolished |  | 
CCN(CC)CC(=O)Nc1c(C)cccc1C [lidocaine] |  |  | decreased | decreased
